Laboratory results published in ChEMBL document CHEMBL1121623, “Thrombin inhibitors. 3. Carboxyl-containing amide derivatives of N alpha-substituted L-arginine” (J Med Chem, 1980).

molecular target: T1, Prothrombin (Bos taurus, UniProt P00735); experiment: (§1) Concentration at which the clotting time was prolonged by twice that of the control by inhibiting thrombin; conditions: read-out: I50

| Compound | IC50 [nM] |
| --- | --- |
| CC1CCN(C(=O)C(CCCN=C(N)N)NS(=O)(=O)c2cccc3c(N(C)C)cccc23)C(C(=O)O)C1 (stereo unspecified) | 4000 |
| COc1ccc2ccc(S(=O)(=O)NC(CCCN=C(N)N)C(=O)N3CCCCC3C(=O)O)cc2c1 (stereo unspecified) | 5000 |
| COc1cc2ccc(S(=O)(=O)NC(CCCN=C(N)N)C(=O)N(C)CC(=O)O)cc2cc1OC (stereo unspecified) | > 100000 |
| COCCN(CC(=O)O)C(=O)C(CCCN=C(N)N)NS(=O)(=O)c1cccc2c(N(C)C)cccc12 (stereo unspecified) | 5000 |
| CCOc1cc2ccc(S(=O)(=O)NC(CCCN=C(N)N)C(=O)N(CCOC)CC(=O)O)cc2cc1OCC (stereo unspecified) | 15000 |
| COCCN(CC(=O)O)C(=O)C(CCCN=C(N)N)NS(=O)(=O)c1cccc2cc(C)c(C)cc12 (stereo unspecified) | 10000 |
| COc1cc2ccc(S(=O)(=O)NC(CCCN=C(N)N)C(=O)N(CC(=O)O)C3CCCCCC3)cc2cc1OC (stereo unspecified) | 15000 |
| CCCN(CC(=O)O)C(=O)C(CCCN=C(N)N)NS(=O)(=O)c1ccc2cc(OC)c(OC)cc2c1 (stereo unspecified) | 8000 |
| CCCCCCCCN(CC(=O)O)C(=O)C(CCCN=C(N)N)NS(=O)(=O)c1ccc2cc(OC)c(OC)cc2c1 (stereo unspecified) | > 100000 |
| COc1ccc2cc(S(=O)(=O)NC(CCCN=C(N)N)C(=O)N3CCCCC3C(=O)O)ccc2c1 (stereo unspecified) | 100000 |
| CCSCCN(CC(=O)O)C(=O)C(CCCN=C(N)N)NS(=O)(=O)c1ccc2cc(OC)c(OC)cc2c1 (stereo unspecified) | 5000 |
| CCCCN(CC(=O)O)C(=O)C(CCCN=C(N)N)NS(=O)(=O)c1cccc2c(N(C)C)cccc12 (stereo unspecified) | 4000 |
| COc1cc2ccc(S(=O)(=O)NC(CCCN=C(N)N)C(=O)N(CC(=O)O)C3CCCCC3)cc2cc1OC (stereo unspecified) | 5000 |
| COCCCN(CC(=O)O)C(=O)C(CCCN=C(N)N)NS(=O)(=O)c1ccc2cc(OC)c(OC)cc2c1 (stereo unspecified) | 5000 |
| COc1cc2ccc(S(=O)(=O)NC(CCCN=C(N)N)C(=O)N3CCCC(C(=O)O)C3)cc2cc1OC (stereo unspecified) | 40000 |
| COCCN(CC(=O)O)C(=O)C(CCCN=C(N)N)NS(=O)(=O)c1cc(OC)c2cc(OC)ccc2c1 (stereo unspecified) | 4000 |
| N=C(N)NCCCC(NS(=O)(=O)c1cccc2ccccc12)C(=O)N(CC(=O)O)CC1CCCO1 (stereo unspecified) | 30000 |
| CCCCN(CC(=O)O)C(=O)C(CCCN=C(N)N)NS(=O)(=O)c1cccc2c(OC)cccc12 (stereo unspecified) | 4000 |
| CCCCN(CC(=O)O)C(=O)C(CCCN=C(N)N)NS(=O)(=O)c1ccc2ccccc2c1 (stereo unspecified) | > 100000 |
| CC(C)C1CCN(C(=O)C(CCCN=C(N)N)NS(=O)(=O)c2ccc3ccccc3c2)C(C(=O)O)C1 (stereo unspecified) | 50000 |
| COc1cc2ccc(S(=O)(=O)NC(CCCN=C(N)N)C(=O)N3CCC(C(=O)O)CC3)cc2cc1OC (stereo unspecified) | 150000 |
| CCOc1cc2ccc(S(=O)(=O)NC(CCCN=C(N)N)C(=O)N3CCC(C)CC3C(=O)O)cc2cc1OCC (stereo unspecified) | 4000 |
| COCCN(CCCC(=O)O)C(=O)C(CCCN=C(N)N)NS(=O)(=O)c1ccc2cc(OC)c(OC)cc2c1 (stereo unspecified) | 40000 |
| COCCN(CC(=O)O)C(=O)C(CCCN=C(N)N)NS(=O)(=O)c1cccc2ccccc12 (stereo unspecified) | 30000 |
| COc1cc2ccc(S(=O)(=O)NC(CCCN=C(N)N)C(=O)N3C(C(=O)O)CCCC3C(=O)O)cc2cc1OC (stereo unspecified) | > 100000 |
| COCCN(C(=O)C(CCCN=C(N)N)NS(=O)(=O)c1ccc2cc(OC)c(OC)cc2c1)C(C)C(=O)O (stereo unspecified) | 5000 |
| COc1cc2ccc(S(=O)(=O)NC(CCCN=C(N)N)C(=O)N3CCCCC3C(=O)O)cc2cc1OC (stereo unspecified) | 4500 |
| COc1cc2ccc(S(=O)(=O)NC(CCCN=C(N)N)C(=O)N(CC(=O)O)CC3CCCCC3)cc2cc1OC (stereo unspecified) | 15000 |

Results, then the compound that gave them:

| IC50 [nM] | Compound |
| --- | --- |
| 3700 | COCCN(CCC(=O)O)C(=O)C(CCCN=C(N)N)NS(=O)(=O)c1ccc2cc(OC)c(OC)cc2c1 (stereo unspecified) |
| 3000 | COc1cc2ccc(S(=O)(=O)NC(CCCN=C(N)N)C(=O)N(CCc3ccccc3)CC(=O)O)cc2cc1OC (stereo unspecified) |
| 3000 | Cc1cc2ccc(S(=O)(=O)NC(CCCN=C(N)N)C(=O)N(CC(=O)O)CC3CCCO3)cc2cc1C (stereo unspecified) |
| 2500 | COc1cc2ccc(S(=O)(=O)NC(CCCN=C(N)N)C(=O)N(CC(=O)O)Cc3ccccc3)cc2cc1OC (stereo unspecified) |
| 2500 | COCCN(CC(=O)O)C(=O)C(CCCN=C(N)N)NS(=O)(=O)c1cccc2c(OC)cccc12 (stereo unspecified) |
| 2000 | COc1cc2ccc(S(=O)(=O)NC(CCCN=C(N)N)C(=O)N(CC(=O)O)CC(C)C)cc2cc1OC (stereo unspecified) |
| 2000 | CN(C)c1cccc2c(S(=O)(=O)NC(CCCN=C(N)N)C(=O)N(CC(=O)O)CC3CCCO3)cccc12 (stereo unspecified) |
| 2000 | CCCCN(CC(=O)O)C(=O)C(CCCN=C(N)N)NS(=O)(=O)c1cc(OC)c2cc(OC)ccc2c1 (stereo unspecified) |
| 1000 | CC1CCN(C(=O)C(CCCN=C(N)N)NS(=O)(=O)c2cccc3ccccc23)C(C(=O)O)C1 (stereo unspecified) |
| 1000 | CCCCCN(CC(=O)O)C(=O)C(CCCN=C(N)N)NS(=O)(=O)c1ccc2cc(OC)c(OC)cc2c1 (stereo unspecified) |
| 600 | CC1CCN(C(=O)C(CCCN=C(N)N)NS(=O)(=O)c2cccc3c2CCCC3)C(C(=O)O)C1 (stereo unspecified) |
| 500 | CC(C)C1CCN(C(=O)C(CCCN=C(N)N)NS(=O)(=O)c2ccc3cc(Cl)ccc3c2)C(C(=O)O)C1 (stereo unspecified) |
| 500 | COCCN(CC(=O)O)C(=O)C(CCCN=C(N)N)NS(=O)(=O)c1ccc2ccc(OC)cc2c1 (stereo unspecified) |
| 500 | CCCCN(CC(=O)O)C(=O)C(CCCN=C(N)N)NS(=O)(=O)c1ccc2cc(OC)ccc2c1 (stereo unspecified) |
| 500 | CCCCN(CC(=O)O)C(=O)C(CCCN=C(N)N)NS(=O)(=O)c1ccc2ccc(OC)cc2c1 (stereo unspecified) |
| 400 | COc1cc2ccc(S(=O)(=O)NC(CCCN=C(N)N)C(=O)N3CCC(C)CC3C(=O)O)cc2cc1OC (stereo unspecified) |

| IC50 [nM] | Compound |
| --- | --- |
| 350 | Cc1ccc2cc(S(=O)(=O)NC(CCCN=C(N)N)C(=O)N3CCC(C(C)C)CC3C(=O)O)ccc2c1 (stereo unspecified) |
| 350 | COCCN(CC(=O)O)C(=O)C(CCCN=C(N)N)NS(=O)(=O)c1ccc2ccc(C)cc2c1 (stereo unspecified) |
| 340 | COc1ccc2cc(S(=O)(=O)NC(CCCN=C(N)N)C(=O)N3CCC(C)CC3C(=O)O)cc(OC)c2c1 (stereo unspecified) |
| 300 | CCCCN(CC(=O)O)C(=O)C(CCCN=C(N)N)NS(=O)(=O)c1ccc2ccc(C)cc2c1 (stereo unspecified) |
| 300 | COCCN(CC(=O)O)C(=O)C(CCCN=C(N)N)NS(=O)(=O)c1ccc2cc(OC)c(OC)cc2c1 (stereo unspecified) |
| 300 | CCCCN(CC(=O)O)C(=O)C(CCCN=C(N)N)NS(=O)(=O)c1ccc2cc(OC)c(OC)cc2c1 (stereo unspecified) |
| 200 | Cc1ccc2ccc(S(=O)(=O)NC(CCCN=C(N)N)C(=O)N(CC(=O)O)CC3CCCO3)cc2c1 (stereo unspecified) |
| 200 | COc1cc2ccc(S(=O)(=O)NC(CCCN=C(N)N)C(=O)N(CC(=O)O)CC3CCCO3)cc2cc1OC (stereo unspecified) |
| 150 | COc1ccc2ccc(S(=O)(=O)NC(CCCN=C(N)N)C(=O)N(CC(=O)O)CC3CCCO3)cc2c1 (stereo unspecified) |
| 150 | Cc1ccc2ccc(S(=O)(=O)NC(CCCN=C(N)N)C(=O)N3CCC(C)CC3C(=O)O)cc2c1 (stereo unspecified) |
| 150 | CCCCCCN(CC(=O)O)C(=O)C(CCCN=C(N)N)NS(=O)(=O)c1ccc2cc(OC)c(OC)cc2c1 (stereo unspecified) |
| 150 | COc1ccc2ccc(S(=O)(=O)NC(CCCN=C(N)N)C(=O)N3CCC(C(C)C)CC3C(=O)O)cc2c1 (stereo unspecified) |
| 150 | COc1ccc2ccc(S(=O)(=O)NC(CCCN=C(N)N)C(=O)N3CCC(C)CC3C(=O)O)cc2c1 (stereo unspecified) |
| 100 | CCC1CCN(C(=O)C(CCCN=C(N)N)NS(=O)(=O)c2ccc3ccc(OC)cc3c2)C(C(=O)O)C1 (stereo unspecified) |
| 100 | CC1CCN(C(=O)C(CCCN=C(N)N)NS(=O)(=O)c2ccc3c(c2)-c2ccccc2C3)C(C(=O)O)C1 (stereo unspecified) |
| 100 | Cc1ccc2ccc(S(=O)(=O)NC(CCCN=C(N)N)C(=O)N3CCC(C(C)C)CC3C(=O)O)cc2c1 (stereo unspecified) |

molecular target: T1, Prothrombin; experiment: as §1; format: functional; conditions: read-out: I50

| IC50 [nM] | Compound |
| --- | --- |
| 400 | COCCN(CC(=O)O)C(=O)C(CCCN=C(N)N)NS(=O)(=O)c1ccc2c(c1)-c1ccccc1C2 (stereo unspecified) |
| 250 | CCC1CCN(C(=O)C(CCCN=C(N)N)NS(=O)(=O)c2ccc3cc(OC)c(OC)cc3c2)C(C(=O)O)C1 (stereo unspecified) |
| 10000 | COCCN(CC(=O)O)C(=O)C(CCCN=C(N)N)NS(=O)(=O)c1cccc2c1CCCC2 (stereo unspecified) |
| 6500 | N=C(N)NCCCC(NS(=O)(=O)c1cccc2c1CCCC2)C(=O)N(CC(=O)O)CC1CCCO1 (stereo unspecified) |
| 350 | COCCN(CC(=O)O)C(=O)C(CCCN=C(N)N)NS(=O)(=O)c1ccc2oc3ccccc3c2c1 (stereo unspecified) |
| 2500 | COc1ccc2ccc(S(=O)(=O)NC(CCCN=C(N)N)C(=O)N3CCCCCC3C(=O)O)cc2c1 (stereo unspecified) |
| 20000 | CCCCN(CC(=O)O)C(=O)C(CCCN=C(N)N)NS(=O)(=O)c1cccc2c1CCCC2 (stereo unspecified) |
| 500 | CCCC1CCN(C(=O)C(CCCN=C(N)N)NS(=O)(=O)c2ccc3cc(OC)c(OC)cc3c2)C(C(=O)O)C1 (stereo unspecified) |
| 450 | COCCN(CC(=O)O)C(=O)C(CCCN=C(N)N)NS(=O)(=O)c1ccc2sc3ccccc3c2c1 (stereo unspecified) |
| 60000 | CCCCN(CC(=O)O)C(=O)C(CCCN=C(N)N)NS(=O)(=O)c1ccc2c(c1)CCCC2 (stereo unspecified) |
| 32000 | COCCN(CC(=O)O)C(=O)C(CCCN=C(N)N)NS(=O)(=O)c1ccc2c(c1)OCCO2 (stereo unspecified) |
| 57000 | COCCN(CC(=O)O)C(=O)C(CCCN=C(N)N)NS(=O)(=O)c1ccc2cc3c(cc2c1)OCCO3 (stereo unspecified) |
| 300 | CCCCN(CC(=O)O)C(=O)C(CCCN=C(N)N)NS(=O)(=O)c1ccc2oc3ccccc3c2c1 (stereo unspecified) |
| 150 | CC1CCN(C(=O)C(CCCN=C(N)N)NS(=O)(=O)c2cccc3c2oc2ccccc23)C(C(=O)O)C1 (stereo unspecified) |
| 700 | COc1cc2ccc(S(=O)(=O)NC(CCCN=C(N)N)C(=O)N3CCc4ccccc4C3C(=O)O)cc2cc1OC (stereo unspecified) |
| 100000 | CCCCCN(CC(=O)O)C(=O)C(CCCN=C(N)N)NS(=O)(=O)c1cccc2c1CCCC2 (stereo unspecified) |
| 100 | CC1CCN(C(=O)C(CCCN=C(N)N)NS(=O)(=O)c2ccc3oc4ccccc4c3c2)C(C(=O)O)C1 (stereo unspecified) |
| 12000 | COc1cc2ccc(S(=O)(=O)NC(CCCN=C(N)N)C(=O)N3CCC(c4ccccc4)CC3C(=O)O)cc2cc1OC (stereo unspecified) |
| 250 | CC1CCN(C(=O)C(CCCN=C(N)N)NS(=O)(=O)c2ccc3c(c2)Sc2ccccc2O3)C(C(=O)O)C1 (stereo unspecified) |
| 350 | COCCN(CC(=O)O)C(=O)C(CCCN=C(N)N)NS(=O)(=O)c1ccc2c(c1)Sc1ccccc1O2 (stereo unspecified) |
| 1500 | COc1cc2ccc(S(=O)(=O)NC(CCCN=C(N)N)C(=O)N3Cc4ccccc4C3C(=O)O)cc2cc1OC (stereo unspecified) |
